Results on 27 compounds are retold here after patent US8242280B2, “Fused ring heterocycle kinase modulators” (SGX Pharmaceuticals, Inc., priority 2007, dated 2012).

Test [1] deals with T1, unphosphorylated T315I Abl kinase domain (Mus musculus, UniProt P00520, T315I).
T1 construct: purified and unphosphorylated T315I Abl kinase domain; made in house; host or cells: E. coli BL21(DE3) (Codon+RIL or pSA0145 strain)
T1 sequence (P00520 242-493 T315I limits assumed): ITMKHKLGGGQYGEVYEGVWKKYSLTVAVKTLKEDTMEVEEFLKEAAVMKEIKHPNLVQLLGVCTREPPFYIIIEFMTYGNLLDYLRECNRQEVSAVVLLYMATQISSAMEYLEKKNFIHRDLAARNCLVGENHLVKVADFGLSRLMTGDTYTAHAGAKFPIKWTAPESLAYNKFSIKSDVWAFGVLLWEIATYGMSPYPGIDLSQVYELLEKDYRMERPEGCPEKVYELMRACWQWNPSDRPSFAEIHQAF
Nature of the test: c-Abl T315I 0P bioassay (pyruvate kinase/lactate dehydrogenase coupled enzyme assay). Format: biochemical. Conditions: zero phosphorylation state (0P), 10 μM ATP, read-out: AbI T315I 0P IC50. An excerpt:
Although the first of these examples uses the kinase domain of a mutant form of Abl T315I (“Abl T315I KD”), the kinase assays may use various forms of mutant and wild type enzymes, including, for example, the entire protein, the kinase domain, or a portion thereof (e.g. Abl Y393F). The kinases used in the assays may also be of varying phosphorylation states. In the c-Abl example, a mutant kinase at a zero phosphorylation state was used. c-Abl Pyruvate Kinase/Lactate Dehydrogenase Coupled Enzyme Assay
In the c-Abl Pyruvate Kinase (PK)/Lactate Dehydrogenase (LDH) Coupled Assay the protein kinase dependant phosphorylation of a substrate peptide was coupled to the oxidation of NADH. The oxidation of NADH to NAD+ was detected by monitoring a decrease in absorbance at 340 nm.
Materials: Abl substrate peptide=EAIYAAPFAKKK (SEQ ID NO: 1)—OH (Biopeptide, San Diego, Calif.); pNADH (Sigma Cat#N-8129, FW=709.4); 2M MgC12; 1M HEPES buffer, pH 7.5; Phosphoenolpyruvate (PEP) (Sigma Cat#P-7002, FW=234); Lactate dehydrogenase (LDH) (Worthington Biochemical Cat#2756); Pyruvate Kinase (PK) (Sigma Cat#P-9136); ATP (Sigma Cat#A-3377, FW=551); Greiner 384-well UV star plate; and purified and unphosphorylated T315I Abl kinase domain.
Stock Solutions: 10 mM NADH (7.09 mg/ml in miliQH2O) made fresh daily; 10 mM Abl substrate peptide (13.4 mg/ml in miliQH2O) stored at −20° C.; 100 mM HEPES buffer, pH 7.5 (5 ml 1M stock+45 ml miliQH2O); 100 mM MgCl2 (5 ml 2M MgCl2+95 ml dH2O); 100 MM PEP (23.4 mg/ml in dH2O) stored at −20° C.; 10 mM ATP (5.51 mg/ml in dH2O) stored at −20° C. (diluted 50 μl into total of 10 ml miliQH2O daily=50 μM ATP working stock); 1000 U/ml PK (U/mg varies with lot) flash-frozen under liquid N2 and stored at −80° C.; and 1000 U/ml LDH (U/mg varies with lot) flash-frozen under liquid N2 and stored at −80° C.
Standard Assay Setup for 384-well format (50 μl reaction): 300 μM NADH; 10 mM MgCl2; 2 mM PEP; 45U/ml PK; 60 U/ml LDH; 200 μM Abl substrate peptide; 2.5 μl test compound (in DMSO); 2 μg/ml Abl kinase domain; 10 μM ATP; 100 mM HEPES buffer. Positive controls contained DMSO with no test compound. Negative controls contained 5 μl of 0.5M EDTA (50 mM in the assay). The dephosphorylated form of the c-Abl T315I mutant was used in the biochemical screening assays. The kinase reaction was initiated at time t=0 by the addition of ATP.
Activity was measured by following the time-dependent loss of NADH by absorbance spectroscopy at 340 nm. The linear portion of the resulting progress curve was then analyzed by linear regression to get the activity in absorbance units/time, reported as the slope of that best fit line (moles/unit time can be calculated from using molar extinction coefficient for NADH at 340 nm, 6250M^−1 cm^−1).
Data was evaluated using the equation: Z′=1−[3*(σ++σ−)/|μ+−μ−|](Zhang, et al., 1999 J Biomol Screening 4(2) 67-73), where μ denotes the mean and σ the standard deviation. The subscript designates positive or negative controls. The Z′ score for a robust screening assay should be ≧0.50. The typical threshold=μ+−3*σ+. Any value that falls below the threshold was designated a “hit”.
Dose response was analyzed using the equation: y=min+{(max−min)/(1+10^[compound]−logIC50)}, where y is the observed initial slope, max=the slope in the absence of inhibitor, min=the slope at infinite inhibitor, and the IC50 is the [compound] that corresponds to ½ the total observed amplitude (Amplitude=max−min).
To measure modulation, activation, or inhibition of Abl KD, a test compound was added to the assay at a range of concentrations. Inhibitors may inhibit Abl KD activity at an IC50 in the micromolar range, the nanomolar range, or, for example, in the subnanomolar range.
An open-reading frame for c-Abl was amplified from a Mus musculus (mouse) cDNA library prepared from freshly harvested mouse liver using a commercially available kit (invitrogen) by PCR using the following primers: […]
The c-Abl T315I KD (kinase domain) was purified as follows. […]

In test [2] the target is Ba/F3 cells, ABL1 WT (Homo sapiens, UniProt P00519). The test can be described thus: 96-well XTT cell survival assay, Ba/F3 ABL1 WT. It counts as cell-based. Conditions: 72 hours, read-out: ABL1 WT XTT [Ba/F3] IC50. As for the experimental part: (§1) MV4-11 and THP cells were maintained in Iscove's Modified Dulbecco's Medium supplemented with 10% fetal bovine serum (FBS) and penicillin/streptomycin, Ba/F3 cells were maintained in RPMI 1640 supplemented with 10% FBS, penicillin/streptomycin and 5 ng/ml recombinant mouse IL-3.
(§2) Compounds were tested in the following assays in duplicate.
(§3) 96-well XTT assay: Cells (e.g. BaF3 315I, M351I, or E255K cells) were grown in growth media containing various concentrations of compounds (duplicates) on a 96-well plate for 72 hours at 37° C. The starting cell number was 5000-8000 cells per well and volume was 120 μl. At the end of the 72-hour incubation, 40 μl of XTT labeling mixture (50:1 solution of sodium 3′-[1-(phenylamino-carbonyl)-3,4-tetrazolium]-bis(4-methoxy-6-nitro)benzene sulfonic acid hydrate and Electron-coupling reagent: PMS (N-methyl dibenzopyrazine methyl sulfate) were added to each well of the plate. After an additional 2-6 hours of incubation at 37° C., the absorbance reading at 405 nm with background correction at 650 nm was measured with a spectrophotometer.

In test [3] the target is Ba/F3 cells, ABL1 T315I (Homo sapiens, UniProt P00519, T315I, cells depend on it). Nature of the test: 96-well XTT cell survival assay, Ba/F3 ABL1 T315I. Conditions: 72 hours, read-out: ABL1 T315I XTT [Ba/F3] IC50. It counts as cell-based. How it is done:
as §1, §2, §3

Some results are limits rather than exact numbers.

With `COc1ccccc1-c1c[nH]c2ncc(-c3cccc(C(F)C(=O)N(C)C)c3)cc12` (stereo not drawn), the IC50 in test [1] was under 0.05 µM. For the same compound, the GI50 in test [2] and in test [3] was over 1 µM each time.
`COc1ccccc1-c1n[nH]c2ncc(-c3cccc(C(C)C(=O)N4CCC(N(C)C)C4)c3)cc12` (stereo not drawn): in test [1], the IC50 was under 0.05 µM. In addition, the GI50 in test [2] and in test [3] was under 1 µM throughout.
On to `COc1ccccc1-c1c[nH]c2ncc(-c3cc(C(O)C(=O)N(C)C)ccn3)cc12` (stereo not drawn), for which the IC50 in test [1] is under 0.05 µM. Moreover, the GI50 in test [2] and in test [3] was over 1 µM throughout.
As for `CN(C)C(=O)C(O)c1cncc(-c2cnc3[nH]cc(-c4ccc(N(C)C)cc4)c3c2)c1` (stereo not drawn), the IC50 in test [1] fell in the range of 0.05 to 0.5 µM. Moreover, the GI50 in test [2] and in test [3] was over 1 µM in each case.
As for `CN(C)C(=O)C(O)c1cncc(-c2cnc3[nH]cc(-c4ccnn4C)c3c2)c1` (stereo not drawn) [drawing 465], the IC50 in test [1] was under 0.05 µM. The GI50 in test [2] and in test [3] was over 1 µM throughout.
Regarding `CC[C@H](O)[C@@H](O)c1cccc(-c2cnc3[nH]cc(-c4ccccc4OC)c3c2)c1`, in test [1], the IC50 is under 0.05 µM. Besides, the GI50 in test [2] and in test [3] was under 1 µM throughout.
With `CN(C)C(=O)C(O)c1cncc(-c2cnc3[nH]cc(-c4ccccc4OC4CC4)c3c2)c1` (stereo not drawn), the IC50 in test [1] was under 0.05 µM. Besides, the GI50 in test [2] and in test [3] was under 1 µM throughout.
For `CN(C)C(=O)C(O)c1cncc(-c2cnc3[nH]cc(-c4ccnn4-c4ccccc4)c3c2)c1` (stereo not drawn), the IC50 in test [1] was under 0.05 µM. Also, the figures for the GI50 in test [2] and in test [3] were under 1 µM and over 1 µM, respectively.
Take `CN(C)C(=O)C(O)c1cncc(-c2cnc3[nH]cc(-c4ccccc4OC(F)(F)F)c3c2)c1` (stereo not drawn): the IC50 in test [1] was under 0.05 µM. For the same compound, the GI50 in test [2] was under 1 µM; in test [3], over 1 µM.
Taken in the same sequence, the figures for `COc1ccccc1-c1n[nH]c2ncc(-c3cccc(C(C)C(=O)N(C)C4CCN(C)C4)c3)cc12` (stereo not drawn) were under 0.05 µM, under 1 µM and over 1 µM.
In the case of `COc1ccccc1-c1n[nH]c2ncc(-c3cccc(C(OC)C(=O)N(C)CCN(C)C)c3)cc12` (stereo not drawn), the IC50 in test [1] is under 0.05 µM. Further, the GI50 in test [2] and in test [3] was under 1 µM in each case.
In the case of `COc1ccccc1-c1c[nH]c2ncc(-c3ccnc(C(O)C(=O)N(C)C)n3)cc12` (stereo not drawn), the IC50 in test [1] was in the range of 0.05 to 0.5 µM. Also, the GI50 in test [2] and in test [3] was over 1 µM throughout.
Regarding `CN(C)C(=O)C(O)c1cncc(-c2cnc3[nH]cc(-c4ccc5c(c4)OCO5)c3c2)c1` (stereo not drawn), the IC50 in test [1] was under 0.05 µM. The GI50 was under 1 µM in test [2] and over 1 µM in test [3].
The like results for `COc1ccccc1-c1n[nH]c2ncc(-c3cccc(CO)c3)cc12` were, in that order, over 0.5 µM, under 1 µM and under 1 µM.
On to `COC(=O)C1=C(C)NC(=O)NC1c1cccc(-c2cnc3[nH]cc(-c4ccccc4OC)c3c2)c1` (stereo not drawn), for which, in test [1], the IC50 is under 0.05 µM. Besides, the GI50 in test [2] and in test [3] was over 1 µM throughout.
Consider `CN(C)C(=O)C(O)c1cncc(-c2cnc3[nH]cc(-c4ccn[nH]4)c3c2)c1` (stereo not drawn), for which the IC50 in test [1] is under 0.05 µM. Further, the GI50 in test [2] and in test [3] was over 1 µM in each case.
Turning to `COc1ccccc1-c1c[nH]c2ncc(-c3cccc(C(N)CC(=O)N4CCC[C@@H]4CO)c3)cc12` (stereo partly drawn), the IC50 in test [1] was under 0.05 µM. The GI50 in test [2] and in test [3] was over 1 µM each time.
As to `COc1ccccc1-c1c[nH]c2ncc(-c3cc(C(O)C(=O)N(C)C)ncn3)cc12` (stereo not drawn), the IC50 in test [1] lay within 0.05 to 0.5 µM. For the same compound, the GI50 in test [2] and in test [3] was over 1 µM throughout.
Take `COc1ccccc1-c1n[nH]c2ncc(-c3cccc(C(O)C(=O)N(C)C)c3)cc12` (stereo not drawn): in test [1], the IC50 is under 0.05 µM. Further, the GI50 in test [2] and in test [3] was under 1 µM throughout.
In the case of `CN(C)C(=O)C(O)c1cncc(-c2cnc3[nH]cc(-c4ccc(C(N)=O)cc4)c3c2)c1` (stereo not drawn), the IC50 in test [1] is under 0.05 µM. Also, the GI50 in test [2] and in test [3] was over 1 µM throughout.
As to `COc1ccccc1-c1c[nH]c2ncc(-c3cncc(C(O)C(=O)N(C)C(C)C)c3)cc12` (stereo not drawn), the IC50 in test [1] is under 0.05 µM. Moreover, the GI50 in test [2] was over 1 µM; in test [3], under 1 µM.
Taken in the same sequence, the figures for `CN(C)C(=O)C(O)c1cncc(-c2cnc3[nH]cc(-c4cccc(Cl)c4)c3c2)c1` (stereo not drawn) [drawing 431] were under 0.05 µM, under 1 µM and under 1 µM.
Take `COc1ccccc1-c1n[nH]c2ncc(-c3cccc([C@@H](O)[C@H](O)C(C)C)c3)cc12`: the half-maximal inhibitory concentration (IC50) in test [1] was under 0.05 µM. In addition, the GI50 in test [2] and in test [3] was under 1 µM throughout.
Take `COc1ccccc1-c1c[nH]c2ncc(-c3cccc(C4(C)NC(=O)NC4=O)c3)cc12` (stereo not drawn): in test [1], the IC50 was under 0.05 µM. For the same compound, the GI50 in test [2] was under 1 µM; in test [3], over 1 µM.
The like results for `COc1ccccc1-c1n[nH]c2ncc(-c3cccc(C(=O)C(=O)N4CC(O)C4)c3)cc12` were, in that order, under 0.05 µM, over 1 µM and over 1 µM.
On to `COc1ccccc1-c1n[nH]c2ncc(-c3cccc(CO)n3)cc12`, for which, in test [1], the IC50 is under 0.05 µM. Besides, the results for the GI50 in test [2] and in test [3] were under 1 µM and over 1 µM, respectively.
The like results for `COc1ccccc1-c1c[nH]c2ncc(-c3cccc(C(N)C(=O)N(C)C)c3)cc12` (stereo not drawn) were, in that order, under 0.05 µM, under 1 µM and under 1 µM.
